Test results reported in patent US20220218679A1, “NOVEL COMPOUNDS AND PHARMACEUTICAL COMPOSITIONS THEREOF FOR THE TREATMENT OF INFLAMMATORY DISORDERS” (Galapagos NV, priority 2019, published 2022).
Like-named read-outs stand apart in the source and are kept apart here.

Tests used:
human IRAK-4 = molecular target: T1, human IRAK-4 (Homo sapiens, UniProt Q9NWZ3); test: Phosphorylation IC50 determination for human IRAK-4 (ADP-Glo kinase assay); assay type: biochemical; details: RIP140 substrate, Km ATP, read-out: IRAK4 IC50
T1 construct: purchased Carna Biosciences 09 145
T1 sequence (Q9NWZ3 1-460): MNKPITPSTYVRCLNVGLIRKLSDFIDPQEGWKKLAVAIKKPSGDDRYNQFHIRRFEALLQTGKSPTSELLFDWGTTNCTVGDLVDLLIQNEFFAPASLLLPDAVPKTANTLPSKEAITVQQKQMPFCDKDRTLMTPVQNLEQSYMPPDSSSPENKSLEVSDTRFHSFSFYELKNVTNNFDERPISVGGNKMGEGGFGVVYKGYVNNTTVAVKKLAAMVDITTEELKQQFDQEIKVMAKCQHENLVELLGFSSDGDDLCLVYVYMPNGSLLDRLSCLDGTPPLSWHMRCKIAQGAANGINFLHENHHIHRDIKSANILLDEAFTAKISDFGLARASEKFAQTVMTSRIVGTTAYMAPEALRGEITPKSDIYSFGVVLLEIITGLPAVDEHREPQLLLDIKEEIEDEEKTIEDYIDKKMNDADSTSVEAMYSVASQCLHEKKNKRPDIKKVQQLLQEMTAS
Procedure: 3.1. Phosphorylation IC50 Determination for Human IRAK-4
The phosphorylation of the substrate RIP140 (SEQ IDi1) by IRAK4 at Km ATP was detected with the ADP-Glo Kinase Assay (Promega, Cat #V9103), a luminescent kinase assay which measures the ADP formed from a kinase reaction. (Zegzouti et al., 2009) In a second step the kinase reaction is terminated and all the remaining ATP was depleted. In a final step the ADP was converted into ATP and this newly synthesized ATP was measured by using a luciferase/luciferin reaction with a luminescent reader. The luminescent signal positively correlated with kinase activity, in particular kinase inhibition giving a decrease of the luminescent signal.
For the semi-automated assay, the positive control (100% inhibition) was prepared by diluting 10 mM staurosporine stock mixture (20 μL) in water (3.8 mL) and DMSO (180 μL), thus resulting in a […] staurosporine solution at 1% DMSO (final concentration after further dilution in the kinase reaction).
For the automated assay, no pre-dilution of the 10 mM staurosporine stock was made. 10 mM staurosporine was spotted directly in the assay plate using acoustic dispensing and complemented with DMSO to result in a similar final concentration as mentioned above.
For the semi-automated assay, the negative control (0% inhibition) was prepared by mixing water (3.8 mL) and DMSO (200 μL) resulting in a final concentration of 1% DMSO after further dilution in the kinase reaction. For the automated assay no pre-dilution of DMSO was done. 100% DMSO was spotted directly on the assay plate.
The assay buffer solution was prepared at a concentration corresponding to 5 fold the final (most diluted) assay concentration by mixing a solution of 125 mM TRIS pH 7.5+0.05% Triton X-100+2.5 mM EGTA (5.27 mL) with 1M MgCl2 (72 μL), 1M DTT (57.6 μL), and 200 mM MnCl2 (360 μL).
For example, for the semi-automated method, the enzyme-substrate mixture was prepared by mixing water (3999 μL), assay buffer solution (1380 μL), 1 mM RIP140 (138 μL—SEQ ID1), and 200 ng/mL IRAK 4 (3.45 μL Carna Biosciences, 09 145).
For semi-automated method, the ATP mixture was prepared at a concentration corresponding to 2.5 fold the final (most diluted) assay concentration of the semi-automated method and 1.5 fold the final (most diluted) assay concentration of the automated method. For example, for the semi-automated method, the ATP mixture was prepared by mixing water (4126 μL), assay buffer solution (1380 μL), and 10 mM ATP (13.80 μL).
The assay was performed either in a semi-automated or fully automated manner. The assay volume and the incubation time of the ADP detection were different accordingly the method used.
3.1.3.1. Semi-Automated Assay
The compounds were prepared as a serial dilution of 10 point dose responses with 1/5 dilution steps in 100% DMSO starting from 2 mM highest concentration, diluted 1/20 in water. 1 μL was transferred dry to the assay plates.
On each assay plate 32 wells of each control (positive & negative) were added, followed by 2 μL enzyme-substrate mixture.
The reaction was started by adding 2 μL diluted ATP (final concentration Km ATP) on the assay plates. Plates were centrifuged for a few seconds at 1000 rpm followed by an incubation at r.t. for 120 min.
The reactions were stopped and the unconsumed ATP was depleted by adding 5 μL ADP-glo Reagent (Promega, Cat #V9103) to the reaction. The plates were quickly centrifuged at 1000 rpm and incubated at r.t. for 40 min corresponding to full ATP depletion.
The ADP was converted back to ATP and luciferase and luciferin were introduced to detect ATP by adding 10 μL kinase detection reagent (Promega, Cat #V9103) to the reaction. The plates were centrifuged for a few seconds at 1000 rpm and incubated at r.t. for a further 30 min.
Luminescent read out was performed on an Envision luminescent reader (Perkin Elmer). […]

Thermodynamic solubility = assay type: physicochemical; details: 37 °C, thermodynamic from solid
Text: 4.2. Thermodynamic Solubility
Poor solubility, in particular poor thermodynamic solubility can limit the absorption of compounds from the gastrointestinal tract which in turn may reduce oral bioavailability.
Thermodynamic solubility investigates the solubility of a compound as a saturated solution in equilibrium, by opposition to kinetic solubility, which measures the solubility of a metastable solution where supersaturation may occur and provide over estimation of the actual solubility of the compound. (Klein, 2010)
4.2.2. Thermodynamic Solubility—Protocol 2
In a 8 mL glass vial, 1-2 mg of dry matter of compound were added and stirred with the suitable buffers (Fed State Simulated Intestine Fluid, FeSSIF, or Fasted State Simulated Intestine Fluid, FaSSIF, or Fasted State Simulated Gastric Fluid, FaSSGF, or phosphate buffer pH 7.4) for 24 h at r.t. (for the buffer pH 7.4) or 37° C. (for the GI fluids). The concentration of the mixture was 1 mg/mL.
A volume of 1000 μL were sampled, centrifuged for 10 min at 10 000 rpm and 500 μL of the supernatant were filtered on captiva plate. The samples were diluted in duplicates in DMSO (F100 and F10). Then, a final dilution (F100) in 80/20 H2O/MeCN containing the internal standard (warfarin) was used for LCMS-MS analysis.
A standard curve was made starting from a 40,000 ng/mL stock in DMSO, freshly prepared from dry matter. Then, successive concentrations at 15,000, 11,000, 6,000, 2,500, 1,000, 375, 150 and 75 ng/mL in DMSO were prepared.
Three quality control samples were made: one of 10,000, 1,500 and 200 ng/mL in DMSO, also starting from the DMSO working stock solution at 40,000 ng/mL.
The standard curve and quality controls were diluted a F100 in 80/20 H2O/MeCN (with internal standard) and analyzed on LC/MS-MS (API4000 or API5500).
The samples were analyzed on LC-MS with a flow rate of 0.6 mL/min. The mobile phase A was 0.1% formic acid in water and the mobile phase B was 0.1% formic acid in 90% MeCN and 10% of H2O. The sample was run under positive or negative ion spray on Pursuit C18—5 μm (2.0×20 mm) column, from Agilent.
The ratio analyte/internal standard peaks areas of the standard curve were plotted in a graph and a linear or polynomial of the second order equation was used to calculate the unknown concentrations of the test compound.
Solubility values were reported in μg/mL.

[1] = system: CL097 triggered IFNα release in human whole blood; test: Ex vivo human IFNα release inhibition (human whole blood assay); assay type: cell-based; details: Homo sapiens, CL097 2 μg/mL, 3 h 30 min at 37° C.
Text: (§1) 4.10.1. Ex Vivo Human IFNα and TNFα Release Inhibition (Human Whole Blood Assay)
(§2) The aim of the assay is to evaluate the activity of compounds of the invention on the activated TLR/IRAK-4 pathway in an ex vivo human whole blood setting. Toll-like receptors (TLRs) are pattern recognition receptors that recognize a wide variety of microbial molecules, called pathogen-associated molecular patterns (PAMPs). Human TLR7 and TLR8 recognize imidazoquinoline compounds (e.g., CL097—CAS n #1026249-18-2) and single stranded RNAs as their natural ligands. Activation of TLRs leads to the production of several cytokines (e.g., IFNα, TNFα, IL-8, IL-6) by the TLR agonist-treated cells, whereas IRAK4 leads to the production of IFNα. Cytokine release is used as readout in this assay and represents a measure for the level of inhibition of the TLR/IRAK-4 pathway by the tested compound. It should be noted that in the context of the complete organism, other sources for these cytokines exist that are not dependent on the TLR/IRAK-4 pathway, such as e.g., macrophages (upon activation of the Fcγ receptor (Yan et al., 2012)) or T cells (upon activation of the T cell receptor (Brehm et al., 2005)).
(§3) 4.10.1.1. Experimental Design
(§4) Blood was collected from healthy volunteers into lithium heparin tubes by venipuncture, then gently inverted several times to prevent clotting and incubated for at least 15 min at 37° C. on a rocking mixer shaker. Then, 100 μL of blood was dispensed into polypropylene 96-well microplate and pre-incubated in duplicate with 0.3% DMSO or test compound at different concentrations (from 30 to 0.01 μM, 3-fold dilutions to get 0.3% DMSO at the final) for 15 min at 37° C. After this pre-incubation, blood was triggered with CL097 (2 μg/mL from 1 mg/mL solution in water; InvivoGen, tlrl-c97) for 3 h 30 min at 37° C. Microtubes were centrifuged at 5000×g for 10 min at 4° C. and approximately 40 μL of plasma were collected into a polystyrene 96-well plate. Plasma could be analyzed freshly, within 30 min after triggering, or frozen at −80° C. Finally, the quantification of TNFα and IFNα were performed in the plasma using AlphaLISA Kit for TNFα and IFNα according to the manufacturer's instructions and read on the Ensight (PerkinElmer).
A standard curve was created by plotting on log-log the mean […] on the y-axis against the concentration on the x-axis and a 4-parameters logistic regression (4PL) was made through the points. For each blood sample, the IFNα concentrations of the samples were determined from the fit. Data were then expressed as a percentage of inhibition (PIN) for each replicate using the formula:
With mean IFNα with CL097=mean IFNα concentration of replicate samples triggered with CL097; IFNαsample1=IFNα concentration of sample 1; mean IFNα with vehicle=mean IFNα concentration of replicate samples treated with vehicle.
(§5) Curve fitting for pIC50 determination were generated using mean PIN±sem. Graphs and pIC50 calculations were derived using Prism 5.03 software (GraphPad).

[2] = system: CL097 triggered TNFα release in human whole blood; test: Ex vivo human TNFα release inhibition (human whole blood assay); assay type: cell-based; details: Homo sapiens, CL097 2 μg/mL, 3 h 30 min at 37° C.
Text: as §1, §2, §3, §4
For each blood sample, the TNFα concentrations of the samples were determined from the fit. Data were then expressed a percentage of inhibition PIN for each replicate using the formula:
With mean TNFα with CL097=mean TNFα concentration of replicate samples triggered with CL097; TNFαsample1=TNFα concentration of sample 1; mean TNFα with vehicle=mean TNFα concentration of replicate samples treated with vehicle.
as §5

| Compound | IC50 (human IRAK-4) | solubility thermodynamic at 24 h (Thermodynamic solubility; Fasted State Simulated Gastric Fluid (FaSSGF), fassgf or other biorelevant, Fasted State Simulated Gastric Fluid, read-out: Tsol FaSSGF) | solubility thermodynamic at 24 h (Thermodynamic solubility; Fasted State Simulated Intestine Fluid (FaSSIF), fassif, Fasted State Simulated Intestine Fluid, read-out: Tsol FaSSIF) | IC50 [1] | IC50 [2] |
| --- | --- | --- | --- | --- | --- |
| CNC(=O)c1cn2nc(C3CCOCC3)cc2cc1NC(=O)c1cccc(C(F)(F)F)n1 [Compound 14, N-methyl-2-tetrahydropyran-4-yl-5-[[6-(trifluoromethyl)pyridine-2-carbonyl]amino]pyrazolo[1,5-a]pyridine-6-carboxamide] | 5 to 10 nM | < 0.75 µg/mL | < 0.75 µg/mL | – | – |
| COc1cn2nc(CCS(C)(=O)=O)cc2cc1NC(=O)c1cccn(C2CC2)c1=O [Compound 6, 1-cyclopropyl-N-[6-methoxy-2-(2-methylsulfonylethyl)pyrazolo[1,5-a]pyridin-5-yl]-2-oxo-pyridine-3-carboxamide] | 5 to 10 nM | – | – | 500 to 1000 nM | 0.1 to 500 nM |
| NC(=O)c1cn2nc(C3CCOCC3)cc2cc1NC(=O)c1cccc(C(F)(F)F)n1 [Compound 11, 2-tetrahydropyran-4-yl-5-[[6-(trifluoromethyl)pyridine-2-carbonyl]amino]pyrazolo[1,5-a]pyridine-6-carboxamide] | 0.1 to 5 nM | – | – | – | – |
